Counter-ions that a name gives are not always drawn.
Legend:
[1] = molecular target: T1, Recombinant JAK3 (Homo sapiens, UniProt P52333); assay: JAK biochemical assay (LANCE Ultra TR-FRET), JAK3; conditions: recombinant JAK3, TR-FRET; read-out: Biochemical Assay (μM) JAK3
T1 construct: purchased Carna Biosciences
T1 sequence (P52333 1-1124): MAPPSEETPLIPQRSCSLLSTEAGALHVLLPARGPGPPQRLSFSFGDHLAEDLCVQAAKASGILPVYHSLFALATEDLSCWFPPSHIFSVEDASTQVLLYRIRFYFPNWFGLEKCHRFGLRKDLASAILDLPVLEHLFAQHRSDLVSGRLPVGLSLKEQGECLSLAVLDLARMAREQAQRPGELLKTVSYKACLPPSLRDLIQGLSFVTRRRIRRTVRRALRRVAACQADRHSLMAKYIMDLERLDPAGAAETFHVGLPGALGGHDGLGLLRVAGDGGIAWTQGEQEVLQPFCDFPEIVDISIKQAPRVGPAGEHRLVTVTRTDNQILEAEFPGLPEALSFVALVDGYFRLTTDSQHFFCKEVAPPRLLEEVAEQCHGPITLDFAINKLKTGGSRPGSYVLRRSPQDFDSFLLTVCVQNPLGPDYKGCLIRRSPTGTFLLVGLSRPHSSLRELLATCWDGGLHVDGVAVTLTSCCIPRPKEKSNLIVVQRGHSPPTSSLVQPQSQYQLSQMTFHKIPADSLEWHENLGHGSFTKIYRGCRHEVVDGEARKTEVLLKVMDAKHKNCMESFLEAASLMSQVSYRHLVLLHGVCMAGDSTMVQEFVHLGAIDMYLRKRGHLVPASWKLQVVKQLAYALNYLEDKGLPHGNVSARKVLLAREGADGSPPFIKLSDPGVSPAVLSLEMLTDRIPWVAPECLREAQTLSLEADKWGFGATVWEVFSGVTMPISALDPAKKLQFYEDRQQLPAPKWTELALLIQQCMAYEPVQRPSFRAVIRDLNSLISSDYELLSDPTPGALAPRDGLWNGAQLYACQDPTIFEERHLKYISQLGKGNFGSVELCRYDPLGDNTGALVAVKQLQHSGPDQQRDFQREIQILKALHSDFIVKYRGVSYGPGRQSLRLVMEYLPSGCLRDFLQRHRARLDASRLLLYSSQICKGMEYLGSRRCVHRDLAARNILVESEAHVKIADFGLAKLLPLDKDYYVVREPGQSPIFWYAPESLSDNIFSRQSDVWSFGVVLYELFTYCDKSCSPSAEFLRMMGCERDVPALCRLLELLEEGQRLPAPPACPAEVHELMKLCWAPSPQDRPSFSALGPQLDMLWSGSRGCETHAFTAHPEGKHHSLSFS
Summary of the method: (§1)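 TR-FRET read-out of ULight substrate phosphorylation by recombinant kinase gives % inhibition relative to vehicle. The assay buffer is HEPES pH 7.5 with EGTA, MgCl2, DTT and Tween-20.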

[2] = molecular target: T2, Recombinant TYK2 (Homo sapiens, UniProt P29597); assay: JAK biochemical assay (LANCE Ultra TR-FRET), TYK2; conditions: recombinant TYK2, TR-FRET; read-out: Biochemical Assay (μM) TYK2
T2 construct: purchased Carna Biosciences
T2 sequence (P29597 whole entry): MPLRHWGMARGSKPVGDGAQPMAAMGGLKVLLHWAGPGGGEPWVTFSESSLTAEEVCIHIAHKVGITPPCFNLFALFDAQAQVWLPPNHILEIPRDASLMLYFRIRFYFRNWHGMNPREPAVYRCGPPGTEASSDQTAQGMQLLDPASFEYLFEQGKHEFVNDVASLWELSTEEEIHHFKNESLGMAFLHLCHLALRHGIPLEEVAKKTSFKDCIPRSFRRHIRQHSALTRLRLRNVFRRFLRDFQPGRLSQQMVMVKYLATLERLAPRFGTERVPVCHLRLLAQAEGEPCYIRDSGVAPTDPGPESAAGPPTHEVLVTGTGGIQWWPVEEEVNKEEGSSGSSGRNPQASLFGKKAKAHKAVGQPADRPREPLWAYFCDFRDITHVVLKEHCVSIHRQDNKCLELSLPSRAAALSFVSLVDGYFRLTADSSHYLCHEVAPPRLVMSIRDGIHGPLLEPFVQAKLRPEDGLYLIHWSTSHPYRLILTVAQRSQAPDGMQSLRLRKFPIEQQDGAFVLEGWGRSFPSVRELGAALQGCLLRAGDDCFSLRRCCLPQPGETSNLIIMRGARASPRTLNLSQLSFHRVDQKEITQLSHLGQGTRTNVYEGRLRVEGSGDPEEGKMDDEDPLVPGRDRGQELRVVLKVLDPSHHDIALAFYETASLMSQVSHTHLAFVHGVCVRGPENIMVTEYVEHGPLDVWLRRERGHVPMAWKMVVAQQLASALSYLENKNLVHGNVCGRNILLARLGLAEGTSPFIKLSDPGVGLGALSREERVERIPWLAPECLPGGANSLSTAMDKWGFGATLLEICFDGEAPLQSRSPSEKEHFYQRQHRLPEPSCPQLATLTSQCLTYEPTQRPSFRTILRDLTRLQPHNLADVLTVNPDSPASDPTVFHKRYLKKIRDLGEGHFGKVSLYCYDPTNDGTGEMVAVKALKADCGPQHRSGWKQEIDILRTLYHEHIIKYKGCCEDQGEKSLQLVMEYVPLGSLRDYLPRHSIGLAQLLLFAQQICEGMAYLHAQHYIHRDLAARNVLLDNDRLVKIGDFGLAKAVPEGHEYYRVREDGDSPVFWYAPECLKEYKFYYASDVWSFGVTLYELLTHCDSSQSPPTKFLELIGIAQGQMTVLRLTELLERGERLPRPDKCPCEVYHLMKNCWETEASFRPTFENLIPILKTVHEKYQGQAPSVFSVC
Summary of the method: as §1

[3] = test system: STAT3 phosphorylation by IL-6 in TF-1 cells; assay: JAK cellular assay: STAT3 phosphorylation by IL-6 in TF-1 cells (HTRF); type: cell-based; conditions: Homo sapiens, TF-1, TF-1 cells, IL-6 30 ng/ml, pSTAT3 HTRF; read-out: Cell Based Assay (μM) TF-1/IL-6/pSTAT3
Method: (§2) TF-1 cells were starved overnight in OptiMEM medium with 0.5% charcoal stripped fetal bovine serum, 0.1 mM nonessential amino acids (NEAA), 1 mM sodium pyruvate and without phenol red in CO2 incubator maintained at 37° c. Next day, cells were resuspended in RPMI without phenol red and dispensed into a 96 well plate at a final cell density of 1,20,000 cells per well. Compounds were diluted in DMSO and added to cells and incubated for 30 minutes in CO2 incubator maintained at 37° c. Final DMSO concentration in cell based assay was 0.2%. Human recombinant cytokines, IL-6 (30 ng/ml) and GMCSF (5 ng/ml) were added to the plate containing cells along with compound and incubated for 20 minutes with gentle tapping at every 5 minutes once. Compound mediated effects on STAT3 and STAT5 phosphorylation was measured in the lysates prepared by using CISBIO pSTAT3 and pSTAT5 detection kits by HTRF method. Background signal obtained from cells which were not activated with cytokines, was subtracted from vehicle controls and compound treated wells.

[4] = molecular target: T3, Recombinant JAK2 (Homo sapiens, UniProt O60674); assay: JAK biochemical assay (LANCE Ultra TR-FRET), JAK2; conditions: recombinant JAK2, TR-FRET; read-out: Biochemical Assay (μM) JAK2
T3 construct: purchased Carna Biosciences
T3 sequence (O60674 whole entry): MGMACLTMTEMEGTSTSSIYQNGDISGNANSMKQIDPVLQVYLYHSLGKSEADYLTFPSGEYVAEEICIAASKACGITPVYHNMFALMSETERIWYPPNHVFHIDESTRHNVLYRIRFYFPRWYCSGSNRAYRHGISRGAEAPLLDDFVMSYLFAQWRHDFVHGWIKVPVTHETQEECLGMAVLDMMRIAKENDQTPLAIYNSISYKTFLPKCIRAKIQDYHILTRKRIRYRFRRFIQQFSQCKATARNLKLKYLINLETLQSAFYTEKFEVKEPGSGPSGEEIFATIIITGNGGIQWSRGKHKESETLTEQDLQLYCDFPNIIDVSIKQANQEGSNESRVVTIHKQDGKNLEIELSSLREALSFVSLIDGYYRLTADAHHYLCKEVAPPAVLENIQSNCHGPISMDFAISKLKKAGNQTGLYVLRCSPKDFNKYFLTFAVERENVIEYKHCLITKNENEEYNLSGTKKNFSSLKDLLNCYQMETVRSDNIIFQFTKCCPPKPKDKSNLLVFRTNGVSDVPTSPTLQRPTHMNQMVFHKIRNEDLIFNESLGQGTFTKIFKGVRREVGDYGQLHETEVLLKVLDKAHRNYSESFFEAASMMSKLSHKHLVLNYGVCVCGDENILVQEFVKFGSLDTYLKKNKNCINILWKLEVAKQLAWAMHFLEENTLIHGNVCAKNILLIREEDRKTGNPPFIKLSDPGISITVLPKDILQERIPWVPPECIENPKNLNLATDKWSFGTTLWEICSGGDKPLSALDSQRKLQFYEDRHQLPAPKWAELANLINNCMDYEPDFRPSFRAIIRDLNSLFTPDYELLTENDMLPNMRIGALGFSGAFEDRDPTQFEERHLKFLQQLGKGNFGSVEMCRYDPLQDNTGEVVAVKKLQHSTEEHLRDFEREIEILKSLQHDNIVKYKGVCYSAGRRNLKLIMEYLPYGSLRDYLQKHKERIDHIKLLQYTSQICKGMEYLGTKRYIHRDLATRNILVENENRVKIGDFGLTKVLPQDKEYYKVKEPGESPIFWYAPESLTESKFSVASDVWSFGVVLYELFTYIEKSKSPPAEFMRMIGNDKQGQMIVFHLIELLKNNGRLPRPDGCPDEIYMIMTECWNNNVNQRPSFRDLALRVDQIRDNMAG
Summary of the method: as §1

[5] = molecular target: T4, Recombinant JAK1 (Homo sapiens, UniProt P23458); assay: JAK biochemical assay (LANCE Ultra TR-FRET), JAK1; conditions: recombinant JAK1, TR-FRET; read-out: Biochemical Assay (μM) JAK1
T4 construct: purchased Carna Biosciences
T4 sequence (P23458 whole entry): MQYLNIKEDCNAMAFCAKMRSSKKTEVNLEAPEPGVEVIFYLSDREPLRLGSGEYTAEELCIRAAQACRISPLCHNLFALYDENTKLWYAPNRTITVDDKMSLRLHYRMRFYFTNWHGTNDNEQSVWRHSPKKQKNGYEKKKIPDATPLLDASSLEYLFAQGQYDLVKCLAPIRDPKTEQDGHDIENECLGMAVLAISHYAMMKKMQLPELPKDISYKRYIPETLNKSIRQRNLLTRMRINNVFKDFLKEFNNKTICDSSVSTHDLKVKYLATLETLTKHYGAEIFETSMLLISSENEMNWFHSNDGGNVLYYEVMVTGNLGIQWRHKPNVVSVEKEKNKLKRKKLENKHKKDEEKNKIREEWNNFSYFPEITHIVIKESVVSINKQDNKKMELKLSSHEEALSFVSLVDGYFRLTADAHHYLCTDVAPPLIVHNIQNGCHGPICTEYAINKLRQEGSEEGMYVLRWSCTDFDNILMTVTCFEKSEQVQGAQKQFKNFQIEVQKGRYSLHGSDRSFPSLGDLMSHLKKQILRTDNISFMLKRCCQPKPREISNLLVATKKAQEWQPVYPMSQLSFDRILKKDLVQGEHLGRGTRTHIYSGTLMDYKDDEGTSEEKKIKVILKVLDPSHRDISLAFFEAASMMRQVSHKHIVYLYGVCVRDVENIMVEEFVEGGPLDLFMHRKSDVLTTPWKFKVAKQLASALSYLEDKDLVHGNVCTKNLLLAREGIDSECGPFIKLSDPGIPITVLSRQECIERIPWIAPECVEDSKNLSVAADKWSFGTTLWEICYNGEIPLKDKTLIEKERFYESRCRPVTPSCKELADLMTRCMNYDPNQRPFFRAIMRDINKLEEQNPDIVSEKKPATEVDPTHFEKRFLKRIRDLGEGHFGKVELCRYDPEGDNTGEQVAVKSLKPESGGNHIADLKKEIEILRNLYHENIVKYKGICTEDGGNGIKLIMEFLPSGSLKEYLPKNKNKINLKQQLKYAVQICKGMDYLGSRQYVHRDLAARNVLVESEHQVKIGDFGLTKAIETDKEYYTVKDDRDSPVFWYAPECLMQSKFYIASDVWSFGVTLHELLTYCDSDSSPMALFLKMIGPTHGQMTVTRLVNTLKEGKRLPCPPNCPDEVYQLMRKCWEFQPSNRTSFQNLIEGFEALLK
Summary of the method: as §1

[6] = test system: STAT5 phosphorylation by GMCSF in TF-1 cells; assay: JAK cellular assay: STAT5 phosphorylation by GMCSF in TF-1 cells (HTRF); type: cell-based; conditions: Homo sapiens; TF-1 cells, GMCSF 5 ng/ml, pSTAT5 HTRF; read-out: Cell Based Assay (μM) TF-1/GMCSF/pSTAT5
Method: as §2

SMILES	IC50 [1]	IC50 [2]	IC50 [3]	IC50 [4]	IC50 [5]	IC50 [6]
O=C(NCC(F)(F)F)Nc1ccc(-c2ccnc3[nH]c(=O)[nH]c23)cc1 [Example 1003, 1-(2,2,2-trifluoroethyl)-3-(4-(2,3-dihydro-2-oxo-1H-imidazo[4,5-b]pyridin-7-yl)phenyl)urea]	0.175 µM	0.182 µM	> 10 µM	0.036 µM	0.021 µM	–
O=S(=O)(CCC(c1ccc(-n2cc(-c3ccnc4[nH]cnc34)cn2)nc1)C(F)(F)F)C1CC1 (stereo not shown) [Example 1139, 7-(1-(5-(4-(cyclopropylsulfonyl)-1,1,1-trifluorobutan-2-yl)pyridin-2-yl)-1H-pyrazol-4-yl)-3H-imidazo[4,5-b]pyridine]	> 0.1 µM	> 1 µM	1 µM	> 0.5 µM	> 0.5 µM	–
CN1CCN(CC(c2ccc(-n3cc(-c4ccnc5[nH]cnc45)cn3)nc2)C(F)(F)F)CC1 (stereo not shown) [Example 1222, 7-(1-(5-(1,1,1-trifluoro-3-(4-methylpiperazin-1-yl)propan-2-yl)pyridin-2-yl)-1H-pyrazol-4-yl)-3H-imidazo[4,5-b]pyridine]	–	–	> 0.8 µM	–	–	> 1 µM
N#CC(NC(=O)n1cc(-c2ccnc3[nH]c(=O)[nH]c23)cn1)C1CCCC1 (stereo not shown) [Example 1038, N-(cyano(cyclopentyl)methyl)-4-(2,3-dihydro-2-oxo-1H-imidazo[4,5-b]pyridin-7-yl)-1H-pyrazole-1-carboxamide]	> 0.5 µM	> 0.5 µM	10 µM	> 0.5 µM	> 0.5 µM	–
CC(NC(=O)n1cc(-c2ccnc3[nH]c(=O)[nH]c23)cn1)C(F)(F)F (stereo not shown) [Example 1030, N-(1,1,1-trifluoropropan-2-yl)-4-(2,3-dihydro-2-oxo-1H-imidazo[4,5-b]pyridin-7-yl)-1H-pyrazole-1-carboxamide]	0.43 µM	0.093 µM	10 µM	0.066 µM	0.039 µM	–
O=C(NCC(F)(F)F)n1cc(-c2ccnc3[nH]cnc23)cn1 [Example 1064, N-(2,2,2-trifluoroethyl)-4-(3H-imidazo[4,5-b]pyridin-7-yl)-1H-pyrazole-1-carboxamide]	< 0.5 µM	< 0.5 µM	> 10 µM	< 0.5 µM	< 0.5 µM	–
CC1(C)CN(C(=O)n2cc(-c3ccnc4[nH]c(=O)[nH]c34)cn2)C1 [Example 1037, 7-(1-(3,3-dimethylazetidine-1-carbonyl)-1H-pyrazol-4-yl)-1,3-dihydro-2H-imidazo[4,5-b]pyridin-2-one]	> 1 µM	> 0.5 µM	> 10 µM	> 1 µM	> 0.5 µM	–
COC(c1ccc(-n2cc(-c3ccnc4[nH]cnc34)cn2)nc1)(C1CCN(C)CC1)C(F)(F)F (stereo not shown) [Example 1244, 7-(1-(5-(2,2,2-trifluoro-1-methoxy-1-(1-methylpiperidin-4-yl)ethyl)pyridin-2-yl)-1H-pyrazol-4-yl)-3H-imidazo[4,5-b]pyridine]	> 0.1 µM	> 1 µM	> 1 µM	> 0.1 µM	< 0.1 µM	–
O=C(NCC(F)(F)F)N1CCN(c2ccnc3[nH]c(-c4ccccc4)nc23)CC1 [Example 1022, N-(2,2,2-trifluoroethyl)-4-(2-phenyl-3H-imidazo[4,5-b]pyridin-7-yl)piperazine-1-carboxamide]	< 0.5 µM	< 0.5 µM	> 10 µM	< 0.5 µM	< 0.5 µM	–
N#CCC(=O)N1CC(C(O)(c2ccc(-n3cc(-c4ccnc5[nH]cnc45)cn3)nc2)C(F)(F)F)C1 (stereo not shown) [Example 1245, 3-(3-(1-(6-(4-(3H-imidazo[4,5-b]pyridin-7-yl)-1H-pyrazol-1-yl)pyridin-3-yl)-2,2,2-trifluoro-1-hydroxyethyl)azetidin-1-yl)-3-oxopropanenitrile]	> 0.003 µM	> 1 µM	> 1 µM	> 0.03 µM	> 0.001 µM	–
N#CC1(NC(=O)n2cc(-c3ccnc4[nH]c(=O)[nH]c34)cn2)CC1 [Example 1032, N-(1-cyanocyclopropyl)-4-(2,3-dihydro-2-oxo-1H-imidazo[4,5-b]pyridin-7-yl)-1H-pyrazole-1-carboxamide]	< 0.5 µM	< 0.5 µM	> 10 µM	< 0.5 µM	< 0.5 µM	–
CN(C)C(=O)CC(c1ccc(-n2cc(-c3ccnc4[nH]cnc34)cn2)nc1)C(F)(F)F (stereo not shown) [Example 1144, 3-(6-(4-(3H-imidazo[4,5-b]pyridin-7-yl)-1H-pyrazol-1-yl)pyridin-3-yl)-4,4,4-trifluoro-N,N-dimethylbutanamide]	> 0.1 µM	> 1 µM	> 1 µM	–	–	> 10 µM
CC(N)CCC(c1ccc(-n2cc(-c3ccnc4[nH]cnc34)cn2)nc1)C(F)(F)F (stereo not shown) [Example 1224, 5-(6-(4-(3H-imidazo[4,5-b]pyridin-7-yl)-1H-pyrazol-1-yl)pyridin-3-yl)-6,6,6-trifluorohexan-2-amine, TFA salt]	0.001 µM	> 0.1 µM	> 0.75 µM	–	–	> 1 µM
N#CCc1cccc(-n2cc(-c3ccnc4[nH]cnc34)cn2)n1 [Example 1117, 2-(6-(4-(3H-imidazo[4,5-b]pyridin-7-yl)-1H-pyrazol-1-yl)pyridin-2-yl)acetonitrile]	–	–	> 1 µM	–	–	> 10 µM
O=C(NC(C1CCCC1)C(F)(F)F)n1cc(-c2ccnc3[nH]c(=O)[nH]c23)cn1 (stereo not shown) [Example 1041, N-(1-cyclopentyl-2,2,2-trifluoroethyl)-4-(2,3-dihydro-2-oxo-1H-imidazo[4,5-b]pyridin-7-yl)-1H-pyrazole-1-carboxamide]	> 10 µM	> 1 µM	> 10 µM	> 1 µM	> 1 µM	–
CC(C)C(C#N)NC(=O)n1cc(-c2ccnc3[nH]c(=O)[nH]c23)cn1 (stereo not shown) [Example 1044, N-(1-cyano-2-methylpropyl)-4-(2,3-dihydro-2-oxo-1H-imidazo[4,5-b]pyridin-7-yl)-1H-pyrazole-1-carboxamide]	< 0.5 µM	< 0.5 µM	10 µM	< 0.5 µM	< 0.5 µM	–
CC1(C)CN(C(=O)Nc2ccc(-c3ccnc4[nH]c(=O)[nH]c34)cc2)C1 [Example 1007, N-(4-(2,3-dihydro-2-oxo-1H-imidazo[4,5-b]pyridin-7-yl)phenyl)-3,3-dimethylazetidine-1-carboxamide]	> 1 µM	> 1 µM	> 10 µM	> 0.5 µM	> 0.5 µM	–
FC(F)(F)Cc1ccc(-n2cc(-c3ccnc4[nH]cnc34)cn2)nc1 [Example 1084, 7-(1-(5-(2,2,2-trifluoroethyl)pyridin-2-yl)-1H-pyrazol-4-yl)-3H-imidazo[4,5-b]pyridine]	–	–	> 1 µM	–	–	> 10 µM
